Measurements as given in patent publication EP0082385A1, “1-(3-Nitrophenyl)pyrido(2,3-d)pyrimidine-2,4(1H,3H) diones and 1-(3-nitrophenyl)quinazoline-2-4(1H,3H)diones as cutaneous medicaments” (Troponwerke GmbH & Co. KG, priority 1981, dated 1983).
Read-outs that look alike come from different tables or passages of the source.

Legend:
[1] = system: durch Kaolin induzierten Ödems der Rattenpfote; assay: Kaolin-induced rat paw oedema, substance applied to shorn back skin or given p.o.; type: in vivo, Ratte; conditions: for ED50: 5 h
[2] = system: emetische Erscheinungen beim Hund; conditions: dog, in vivo
Method: Die Vermeidung der Nebenwirkungen durch cutane Applikation von Verb. 1 ist nachfolgend beispielhaft für Verb. 1 beschrieben. • 1. Sowohl nach oraler als auch intramuskulärer Applikation von Verb. 1 treten bereits ab einer Dosis von etwa 0.1 mg/kg beim Hund starke emetische Erscheinungen auf. Diese emetische Wirkung beim Hund bleibt auch nach cutaner Applikation von 5 mg/kg der Substanz aus. • 2. Verb. […] Verb.

[3] = system: Carrageenan-Pfotenödems der Ratte; assay: Carrageenan rat paw oedema, preparations of TVX; type: in vivo
Text: Aufbereitung von TVX - Hemmung des Carrageenan-Pfotenödems der Ratte

[4] = system: Tachyphylaxie bei Ratten; assay: Tachyphylaxis (loss of oedema-inhibiting effect) after repeated dosing in rats; type: in vivo
[5] = 0,3 mg/kg cutan, in Dimethylsulfoxid, rat, 5 h after oedema provocation
[6] = po, p.o., rat, read-out: DE50 (mg/kg) Kaolin-ödem p.o.

O=c1c2ccccc2n(-c2cccc([N+](=O)[O-])c2)c(=O)n1CCF [Verb. 2, 1-(3-Nitrophenyl)-3-(2-fluorethyl)-chinazolin-2,4(1H, 3H)dion]
% Hemmung des Kaolin-ödems [1, 5]: 56.0% | ED50 [1, 6]: 0.2 mg/kg

COC(=O)c1ccccc1O [Salicyclsäuremethylester, Salicylsäuremethylester, reference compound]
% Hemmung des Kaolin-ödems ([1]; solvent alone (without Verb. 1), cutan, rat): 39.4) %

CCn1c(=O)c2cccnc2n(-c2cccc([N+](=O)[O-])c2)c1=O [Verb. 3, 1-(3-Nitrophenyl)-3-ethylpyridoL2.3-d/pyrimidin-2,4(1H, 3H)dion]
% Hemmung des Kaolin-ödems [1, 5]: 79.8% | ED50 [1, 6]: 0.1 mg/kg

CCn1c(=O)c2ccccc2n(-c2cccc([N+](=O)[O-])c2)c1=O [Verb. 1, 1-(3-Nitrophenyl)-3-ethylchinazolin-2.4(1H, 3H)-dion]
Dosis, ab der emetische Wirkung auftritt [2]: > 5 mg/kg | Dosis, ab der starke emetische Erscheinungen auftreten [2]: ~0.1 mg/kg | % Hemmung des Kaolin-ödems ([1]; 0,3 mg/kg cutan, in Cremophor, rat, n = 5): 14.2% | % Hemmung des Kaolin-ödems ([1]; 0,3 mg/kg cutan, in Dimethylacetamid, rat, n = 5): 50.5% | % Hemmung des Kaolin-ödems ([1]; 0,3 mg/kg cutan, in Dimethylformamid, rat, n = 5): 35.0% | % Hemmung des Kaolin-ödems [1, 5]: 48.3% | % Hemmung des Kaolin-ödems ([1]; 0,3 mg/kg cutan, in Erdnußöl, rat, n = 5): 16.7% | % Hemmung des Kaolin-ödems ([1]; 0,3 mg/kg cutan, in Lutrol, rat, n = 5): 18.3% | % Hemmung des Kaolin-ödems ([1]; 0,3 mg/kg cutan, in N-Methylpyrrolidon, rat, n = 5): 63.2% | % Hemmung des Kaolin-ödems ([1]; 0,3 mg/kg cutan, in Ricinusöl, rat, n = 5): 14.2% | % Hemmung des Kaolin-ödems ([1]; 0,3 mg/kg cutan, in Salicylsäuremethylester, rat, n = 5): 77.1% | ED50 ([1]; Rattus norvegicus, topical, cutan in Dimethylsulfoxid, same antiphlogistic effect as 0,3 mg/kg oral, read-out: DE50 nach cutaner Applikation in Dimethylsulfoxid): 0.3 mg/kg | ED50 [1, 6]: 0.3 mg/kg | % Hemmung ([3]; preparation: TVX 0.03, Aceton 6.97, IPM 3.00 (total 10.00)): 51.3% | % Hemmung ([3]; preparation: TVX 0.03, Aceton 9.97 (total 10.00)): 41.7% | % Hemmung ([3]; preparation: TVX 0.03, Essigsäureethylester 6.97, IPM 3.00 (total 10.00)): 64.1% | % Hemmung ([3]; preparation: TVX 0.03, Essigsäureethylester 9.97 (total 10.00)): 31.0% | % Hemmung ([3]; preparation: TVX 0.03, IPM 3.00, Tween 2.00, Isopropanol 4.97 (total 10.00)): 55.1% | % Hemmung ([3]; preparation: TVX 0.03, Milchsäureethylester 6.97, IPM 3.00 (total 10.00)): 50.6% | % Hemmung ([3]; preparation: TVX 0.03, Milchsäureethylester 9.97 (total 10.00)): 42.0% | % Hemmung ([3]; preparation: TVX 0.03, Tween 0.50, Dowanol DPM 9.47 (total 10.00)): 62.7% | ödemhemmende Wirkung nach topischer Vorbehandlung ([4]; 6 days topical pretreatment, in Dimethylsulfoxid, 0.3 mg/kg/Tag): eindeutige ödemhemmende Wirkung | Wirkungsverlust (Tachyphylaxie) ([4]; cutaneous application): vollständig vermieden | Tachyphylaxie ([4]; oral doses over several days, seen after three to four days): deutliche Tachyphylaxie
